For experiment [1], the species on record is Cavia porcellus. Description: Cardioselectivity determined (Antilog [pA2 (atria) - pA2 (trachea)] ).
For experiment [2], the species on record is Cavia porcellus. Description: Negative log concentration effecting 50% blockade of isoproterenol-induced rate responses in vitro in guinea pig right atria. The class given is functional. The settings on record: read-out: pA2 (converted).
In a further experiment the test system is Canis lupus familiaris. The experiment can be described thus: Time for 80% recovery from 50% blockade levels after 3-h infusions of drug(in vivo).
The species named for experiment [3] is Cavia porcellus. The experiment can be described thus: Inhibition of isoproterenol-induced responses in guinea pig trachea. As to conditions: read-out: pA2 (converted). Type of experiment: functional.
The subject of experiment [4] is Cavia porcellus. Description: Less than 80% recovery from 50% blockade levels after 3-h infusions of drug(in vivo).
The species entered for experiment [5] is Cavia porcellus. The experiment can be described thus: No blockade was observed at 10 e-6 M in guinea pig right atria (In vitro). The class given is functional. The settings on record: read-out: pA2 (converted).

SMILES strings stand for the structures. Some results are limits rather than exact numbers.

As to `COC(=O)c1ccccc1OCC(O)CNCCNC(=O)Cc1ccccc1` (configuration not stated), in the experiment listed under Cavia porcellus [1], the Selectivity came to 4. Besides, the Kb is 5.01 nM in the experiment filed under Cavia porcellus [2] and 20 nM in the experiment listed under Cavia porcellus [3]. This compound also returned a Duration in the experiment with Canis lupus familiaris of 42 min.
Regarding `COC(=O)c1ccccc1OCC(O)CNCCNc1cc(Cl)c2ccccc2c1O` (configuration not stated), in the experiment filed under Cavia porcellus [2], the Kb was 631 nM.
On the same count and under the same terms, the result for `COC(=O)c1ccccc1OCC(O)CN=C1CCN(C=O)CC1` (configuration not stated) reads over 1000 nM.
As to `COC(=O)CCc1ccccc1OCC(O)CNCCNC(=O)C(C)C` (configuration not stated), the results for the Kb in the experiment listed under Cavia porcellus [2] and in the experiment filed under Cavia porcellus [3] were 25.1 nM and 20 nM, respectively. Moreover, the Duration in the experiment on Cavia porcellus [4] is over 60 min.
As for `COC(=O)c1ccccc1OCC(O)CNC(C)C` (configuration not stated), the Selectivity in the experiment listed under Cavia porcellus [1] stood at 2.5. In addition, the Kb in the experiment listed under Cavia porcellus [2] is 5.01 nM; in the experiment listed under Cavia porcellus [3], 12.6 nM. The Duration in the experiment with Canis lupus familiaris worked out at 15 min.
As for `CCOC(=O)N1CCC(=NCC(O)COc2ccccc2C(=O)OC)CC1` (configuration not stated), the Kb in the experiment filed under Cavia porcellus [2] is over 1000 nM.
`COC(=O)c1ccc(OCC(O)CNCCN2CCCCC2)cc1` (configuration not stated): the Kb in the experiment filed under Cavia porcellus [5] is over 1000 nM.
In the case of `COC(=O)c1ccc(OCC(O)CNC(C)C)cc1` (configuration not stated), in the experiment listed under Cavia porcellus [3], the Kb was 3160 nM.
In the case of `COC(=O)c1ccc(OCC(O)CNCCN2CCOCC2)cc1` (configuration not stated), the Kb in the experiment listed under Cavia porcellus [5] was over 1000 nM.
Consider `COC(=O)c1ccccc1OCC(O)CNCc1nc2ccccc2[nH]1` (configuration not stated), for which the Kb in the experiment listed under Cavia porcellus [2] was 316 nM.
`CC(C)NCC(O)COc1cccc2ccccc12` (configuration not stated) [PROPRANOLOL] returned a Duration in the experiment with Cavia porcellus [4] of over 60 min.
Consider `COC(=O)c1ccccc1OCC(O)CNCCNS(=O)(=O)c1ccc(C)cc1` (configuration not stated), for which the Kb in the experiment filed under Cavia porcellus [2] was 158 nM; in the experiment listed under Cavia porcellus [3], 79.4 nM.
`COC(=O)c1ccccc1OCC(O)CNCCNc1ccc([N+](=O)[O-])cn1` (configuration not stated): the Selectivity in the experiment listed under Cavia porcellus [1] is listed as 2.5. The Kb in the experiment listed under Cavia porcellus [2] is 31.6 nM; in the experiment filed under Cavia porcellus [3], 79.4 nM. This compound also returned a Duration in the experiment on Canis lupus familiaris of 15 min.
The corresponding values for `COC(=O)c1ccccc1OCC(O)CNC(C)(C)CNC(N)=O` (configuration not stated) are 2.5, 1.26 nM, 3.16 nM and over 60 min.
The compound `COC(=O)c1ccccc1OCC(O)CNC(C)(C)C` (configuration not stated) yielded a Duration in the experiment on Canis lupus familiaris of 22 min.
Take `COC(=O)c1ccc(OCC(O)CNCCN2CCCC2)cc1` (configuration not stated): the Kb in the experiment filed under Cavia porcellus [5] is over 1000 nM.
Consider `COC(=O)c1ccccc1OCC(O)CNC(C)(C)CNS(=O)(=O)c1ccccc1` (configuration not stated), for which, in the experiment filed under Cavia porcellus [3], the Kb was 1.58 nM.
With `COC(=O)c1ccccc1OCC(O)CNCCNC(=O)C(C)C` (configuration not stated), the Selectivity in the experiment listed under Cavia porcellus [1] is reported as 4. In addition, the Kb is 7.94 nM in the experiment listed under Cavia porcellus [2] and 31.6 nM in the experiment filed under Cavia porcellus [3]. Also, the Duration in the experiment with Canis lupus familiaris is given as 17 min.
Take `Cc1ccccc1OCC(O)CNCCNC(=O)C(C)C` (configuration not stated): the Selectivity in the experiment filed under Cavia porcellus [1] amounted to 4. Besides, the figures for the Kb in the experiment filed under Cavia porcellus [2] and in the experiment listed under Cavia porcellus [3] were 5.01 nM and 20 nM, respectively. Besides, in the experiment with Cavia porcellus [4], the Duration is given as over 60 min.
The matching figures for `COC(=O)/C=C/c1ccccc1OCC(O)CNCCNC(=O)C(C)C` (configuration not stated): 2, 0.398 nM, 0.794 nM and over 60 min.
In the case of `CCOC(=O)c1ccccc1OCC(O)CNCCNC(=O)C(C)C` (configuration not stated), the Selectivity in the experiment listed under Cavia porcellus [1] is on record as 6.3. In addition, the values for the Kb in the experiment filed under Cavia porcellus [2] and in the experiment filed under Cavia porcellus [3] were 3.16 nM and 20 nM, respectively. Moreover, the Duration in the experiment with Canis lupus familiaris amounted to 40 min.
With `CCOC(=O)c1ccccc1OCC(O)CNC(C)(C)CNC(N)=O` (configuration not stated), the Selectivity in the experiment filed under Cavia porcellus [1] was found to be 4. The Kb was 0.126 nM in the experiment listed under Cavia porcellus [2] and 0.501 nM in the experiment filed under Cavia porcellus [3]. The same compound registered a Duration with Cavia porcellus [4] of over 60 min.
The matching figures for `Cc1ccccc1OCC(O)CNC(C)C` (configuration not stated): 2.5, 2.51 nM, 6.31 nM and over 60 min.
In the experiment filed under Cavia porcellus [1], `CCOC(=O)NCC(C)(C)NCC(O)COc1ccccc1C(=O)OC` (configuration not stated) returned a Selectivity of 2.5. Further, the Kb in the experiment listed under Cavia porcellus [2] is 2.51 nM; in the experiment filed under Cavia porcellus [3] it was 6.31 nM. The compound also had a Duration in the experiment on Canis lupus familiaris of 30 min.
On to `COC(=O)c1ccccc1OCC(O)CNCCNC(=O)Nc1ccccc1` (configuration not stated), for which the Selectivity in the experiment listed under Cavia porcellus [1] was determined as 25.1. For the same compound, the Kb was 7.94 nM in the experiment listed under Cavia porcellus [2] and 200 nM in the experiment filed under Cavia porcellus [3]. For the same compound, the Duration in the experiment on Cavia porcellus [4] is recorded as over 60 min.
On to `COC(=O)c1ccccc1OCC(O)CNCCNS(=O)(=O)N(C)C` (configuration not stated), for which the Kb was 31.6 nM in the experiment listed under Cavia porcellus [2] and 50.1 nM in the experiment filed under Cavia porcellus [3]. In the experiment on Canis lupus familiaris, the Duration came out at 15 min.
`COC(=O)c1ccccc1OCC(O)CNCCNC(C)=O` (configuration not stated) returned a Selectivity in the experiment listed under Cavia porcellus [1] of 2. Moreover, the values for the Kb in the experiment listed under Cavia porcellus [2] and in the experiment listed under Cavia porcellus [3] were 50.1 nM and 100 nM, respectively. Further, the Duration in the experiment with Canis lupus familiaris is listed as 18 min.
For `COC(=O)c1ccccc1OCC(O)CNCCc1ccc(OC)c(OC)c1` (configuration not stated), in the experiment with Canis lupus familiaris, the Duration is 30 min. The Kb in the experiment listed under Cavia porcellus [3] is 79.4 nM.
With `COC(=O)c1ccccc1OCC(O)CNC(C)(C)CNC(=O)N1CCOCC1` (configuration not stated), in the experiment listed under Cavia porcellus [1], the Selectivity was 5. Moreover, the Kb in the experiment listed under Cavia porcellus [2] was 0.2 nM; in the experiment filed under Cavia porcellus [3], 1 nM. Further, the Duration in the experiment with Cavia porcellus [4] was over 60 min.

The values are drawn from ChEMBL document CHEMBL1122495, “Ultra-short-acting beta-adrenergic receptor blocking agents. 3. Ethylenediamine derivatives of (aryloxy)propanolamines having esters on the aryl function” (J Med Chem, 1983).
